Results reported in PubChem BioAssay (NCI).
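In this assay, cells in 96-well plates receive the compound at five concentrations for 48 hours. Endpoints are linearly interpolated between the surrounding concentrations. TGI denotes the concentration required for complete inhibition of growth.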

What was measured:
Experiment in all cases: inhibition of tumour cell growth, NCI panel, 48 h
U251 CNS = test system: U251 CNS
MOLT-4 leukemia = test system: MOLT-4 leukemia
HCT-15 colon = test system: HCT-15 colon
IGROV1 ovarian = test system: IGROV1 ovarian
SK-MEL-5 melanoma = test system: SK-MEL-5 melanoma
HS 578T breast = test system: HS 578T breast
MDA-MB-435 = test system: MDA-MB-435
UACC-62 melanoma = test system: UACC-62 melanoma
BT-549 breast = test system: BT-549 breast
RXF 393 renal = test system: RXF 393 renal
786-0 renal = test system: 786-0 renal
SF-539 CNS = test system: SF-539 CNS
HOP-62 NSCLC = test system: HOP-62 NSCLC
PC-3 prostate = test system: PC-3 prostate
OVCAR-5 ovarian = test system: OVCAR-5 ovarian
NCI-H226 lung = test system: NCI-H226 lung
T-47D breast = test system: T-47D breast
MALME-3M melanoma = test system: MALME-3M melanoma
SW-620 colon = test system: SW-620 colon
SNB-19 CNS = test system: SNB-19 CNS
MDA-MB-231 breast = test system: MDA-MB-231 breast
NCI-H522 lung = test system: NCI-H522 lung
ACHN renal = test system: ACHN renal
OVCAR-8 ovarian = test system: OVCAR-8 ovarian
HT29 colon = test system: HT29 colon
SF-295 CNS = test system: SF-295 CNS
HCT-116 colon = test system: HCT-116 colon
HL-60(TB) leukemia = test system: HL-60(TB) leukemia
A498 renal = test system: A498 renal
UO-31 renal = test system: UO-31 renal
M14 melanoma = test system: M14 melanoma
HOP-92 NSCLC = test system: HOP-92 NSCLC
NCI/ADR-RES ovarian = test system: NCI/ADR-RES ovarian
MCF7 breast = test system: MCF7 breast
TK-10 renal = test system: TK-10 renal
OVCAR-4 ovarian = test system: OVCAR-4 ovarian
UACC-257 melanoma = test system: UACC-257 melanoma
OVCAR-3 ovarian = test system: OVCAR-3 ovarian
LOX IMVI melanoma = test system: LOX IMVI melanoma
HCC-2998 colon = test system: HCC-2998 colon
A549 NSCLC = test system: A549 NSCLC
SF-268 CNS = test system: SF-268 CNS
SNB-75 CNS = test system: SNB-75 CNS
SK-MEL-2 melanoma = test system: SK-MEL-2 melanoma
SK-OV-3 ovarian = test system: SK-OV-3 ovarian
COLO 205 colon = test system: COLO 205 colon
SR leukemia = test system: SR leukemia
NCI-H460 lung = test system: NCI-H460 lung
CAKI-1 renal = test system: CAKI-1 renal
NCI-H23 lung = test system: NCI-H23 lung
RPMI-8226 leukemia = test system: RPMI-8226 leukemia
KM12 colon = test system: KM12 colon
SK-MEL-28 melanoma = test system: SK-MEL-28 melanoma
DU-145 prostate = test system: DU-145 prostate
SN12C renal = test system: SN12C renal
MDA-N = test system: MDA-N
CCRF-CEM leukemia = test system: CCRF-CEM leukemia
EKVX NSCLC = test system: EKVX NSCLC

`Fc1cc2nc3n(c2cc1F)C(c1c(F)cccc1F)SC3` (configuration not stated) showed a TGI (U251 CNS) greater than 100 µM, a TGI (MOLT-4 leukemia) greater than 100 µM and a TGI (HCT-15 colon) greater than 100 µM. For the same compound, the TGI (IGROV1 ovarian) was greater than 100 µM, the TGI (SK-MEL-5 melanoma) was 34.6 µM and the TGI (HS 578T breast) was greater than 100 µM. It also gave a TGI (MDA-MB-435) greater than 100 µM, a TGI (UACC-62 melanoma) greater than 100 µM and a TGI (BT-549 breast) greater than 100 µM. For the same compound, the TGI (RXF 393 renal) was greater than 100 µM, the TGI (786-0 renal) was 80.6 µM and the TGI (SF-539 CNS) was greater than 100 µM. It also gave a TGI (HOP-62 NSCLC) greater than 100 µM, a TGI (PC-3 prostate) greater than 100 µM and a TGI (OVCAR-5 ovarian) greater than 100 µM. The TGI (NCI-H226 lung) was greater than 100 µM, the TGI (T-47D breast) was greater than 100 µM and the TGI (MALME-3M melanoma) was greater than 100 µM. The TGI (SW-620 colon) was greater than 100 µM, the TGI (SNB-19 CNS) was greater than 100 µM and the TGI (MDA-MB-231 breast) was greater than 100 µM. The TGI (NCI-H522 lung) was greater than 100 µM, the TGI (ACHN renal) was greater than 100 µM and the TGI (OVCAR-8 ovarian) was greater than 100 µM. The TGI (HT29 colon) was greater than 100 µM, the TGI (SF-295 CNS) was greater than 100 µM and the TGI (HCT-116 colon) was 54.1 µM. For the same compound, the TGI (HL-60(TB) leukemia) was 51.2 µM, the TGI (A498 renal) was 98.3 µM and the TGI (UO-31 renal) was greater than 100 µM. The TGI (M14 melanoma) was 81.5 µM, the TGI (HOP-92 NSCLC) was greater than 100 µM and the TGI (NCI/ADR-RES ovarian) was greater than 100 µM. The TGI (MCF7 breast) was greater than 100 µM, the TGI (TK-10 renal) was greater than 100 µM and the TGI (OVCAR-4 ovarian) was greater than 100 µM. It also gave a TGI (UACC-257 melanoma) greater than 100 µM, a TGI (OVCAR-3 ovarian) greater than 100 µM and a TGI (LOX IMVI melanoma) greater than 100 µM. The TGI (HCC-2998 colon) was greater than 100 µM, the TGI (A549 NSCLC) was greater than 100 µM and the TGI (SF-268 CNS) was greater than 100 µM. For the same compound, the TGI (SNB-75 CNS) was greater than 100 µM, the TGI (SK-MEL-2 melanoma) was greater than 100 µM and the TGI (SK-OV-3 ovarian) was greater than 100 µM. The TGI (COLO 205 colon) was greater than 100 µM, the TGI (SR leukemia) was greater than 100 µM and the TGI (NCI-H460 lung) was greater than 100 µM. The TGI (CAKI-1 renal) was greater than 100 µM, the TGI (NCI-H23 lung) was greater than 100 µM and the TGI (RPMI-8226 leukemia) was greater than 100 µM. For the same compound, the TGI (KM12 colon) was greater than 100 µM, the TGI (SK-MEL-28 melanoma) was greater than 100 µM and the TGI (DU-145 prostate) was greater than 100 µM. For the same compound, the TGI (SN12C renal) was greater than 100 µM and the TGI (MDA-N) was greater than 100 µM.

`O=c1[nH]c2nc3ccccc3c(=O)n2/c1=C/c1ccccc1` showed a TGI (U251 CNS) greater than 100 µM, a TGI (MOLT-4 leukemia) greater than 100 µM and a TGI (HCT-15 colon) greater than 100 µM. The TGI (IGROV1 ovarian) was greater than 100 µM, the TGI (SK-MEL-5 melanoma) was greater than 100 µM and the TGI (HS 578T breast) was greater than 100 µM. It also gave a TGI (MDA-MB-435) of 59 µM, a TGI (UACC-62 melanoma) greater than 100 µM and a TGI (BT-549 breast) of 53.8 µM. For the same compound, the TGI (RXF 393 renal) was greater than 100 µM, the TGI (786-0 renal) was 96.6 µM and the TGI (SF-539 CNS) was 44.9 µM. For the same compound, the TGI (HOP-62 NSCLC) was greater than 100 µM, the TGI (PC-3 prostate) was greater than 100 µM and the TGI (OVCAR-5 ovarian) was greater than 100 µM. It also gave a TGI (NCI-H226 lung) greater than 100 µM, a TGI (T-47D breast) greater than 100 µM and a TGI (MALME-3M melanoma) greater than 100 µM. For the same compound, the TGI (SW-620 colon) was 47.6 µM, the TGI (SNB-19 CNS) was 55.9 µM and the TGI (MDA-MB-231 breast) was greater than 100 µM. It also gave a TGI (NCI-H522 lung) greater than 100 µM, a TGI (ACHN renal) greater than 100 µM and a TGI (OVCAR-8 ovarian) greater than 100 µM. The TGI (HT29 colon) was 39.1 µM, the TGI (SF-295 CNS) was greater than 100 µM and the TGI (HCT-116 colon) was greater than 100 µM. For the same compound, the TGI (HL-60(TB) leukemia) was greater than 100 µM, the TGI (UO-31 renal) was greater than 100 µM and the TGI (M14 melanoma) was greater than 100 µM. For the same compound, the TGI (HOP-92 NSCLC) was greater than 100 µM, the TGI (NCI/ADR-RES ovarian) was greater than 100 µM and the TGI (MCF7 breast) was greater than 100 µM. For the same compound, the TGI (TK-10 renal) was greater than 100 µM, the TGI (CCRF-CEM leukemia) was greater than 100 µM and the TGI (EKVX NSCLC) was greater than 100 µM. It also gave a TGI (OVCAR-4 ovarian) greater than 100 µM, a TGI (UACC-257 melanoma) greater than 100 µM and a TGI (OVCAR-3 ovarian) greater than 100 µM. For the same compound, the TGI (LOX IMVI melanoma) was greater than 100 µM, the TGI (HCC-2998 colon) was greater than 100 µM and the TGI (A549 NSCLC) was greater than 100 µM. It also gave a TGI (SF-268 CNS) greater than 100 µM, a TGI (SNB-75 CNS) of 99.4 µM and a TGI (SK-MEL-2 melanoma) greater than 100 µM. For the same compound, the TGI (SK-OV-3 ovarian) was greater than 100 µM, the TGI (COLO 205 colon) was greater than 100 µM and the TGI (SR leukemia) was greater than 100 µM. The TGI (CAKI-1 renal) was greater than 100 µM, the TGI (NCI-H23 lung) was greater than 100 µM and the TGI (RPMI-8226 leukemia) was greater than 100 µM. It also gave a TGI (KM12 colon) greater than 100 µM, a TGI (SK-MEL-28 melanoma) greater than 100 µM and a TGI (DU-145 prostate) greater than 100 µM. The TGI (SN12C renal) was 83.8 µM and the TGI (MDA-N) was 78.5 µM.
